This note sets out measurements from US20060247266A1, “Nitrogen-containing tricyclic compounds” (Asahi Kasei Pharma Corporation, priority 2004, published 2006).

The subject of one assay is thoracic aorta. The assay can be described thus: Vasoconstriction inhibitory action (Test Example 2). More on the design: species or system Rats (Wistar). The settings on record: aorta constricted with phenylephrine (1 μM), test compound (1 μM). An excerpt:
Rats (Wistar, 11-week old) were bleeded to death and laparotomized to take out the thoracic aorta. That aorta was cut into a ring of a length of about 3 mm in a conventional manner (Asano, T., et al., J. Pharmacol. Exp. Ther., 241, pp. 1033-1040 (1987)) and hung in 10-ml organ bath filled with Krebs-Hensright nutrient solution bubbled with a mixed gas of 95% O2 and 5% CO2. One end of the blood vessel was connected to an isometric transducer (FD Pickup TB-912T, Nihon Kohden) and applied with 2.5 g of resting tension, and constriction and relaxation reactions of the aorta were recorded.
The aorta was constricted with phenylephrine (1 μM, Sigma) and then added with a test compound (1 μM), and the vasoconstriction inhibitory action thereof was observed. The vasoconstriction inhibitory actions of the test compounds were calculated as relaxation ratios, which were based on the vasoconstriction with phenylephrine observed immediately before the addition of the test compounds taken as 100%.

Assay [1] relates to respiratory tract constriction induced by ovalbumin. Description: Action of suppressing respiratory tract constriction induced by antigen stimulation (Test Example 3). The settings on record: for respiratory tract constriction suppression action by inhalation: 0.1% ovalbumin inhalation, test compound by nebulizer inhalation over 5 minutes; for respiratory tract constriction suppressing action: ovalbumin-immunized guinea pigs, test medicament from cannula in hind leg vein, airway resistance for 15 minutes. The assay is classed as in vivo, Hartley guinea pigs.

In assay [2] the test system is intraocular pressure. The assay can be described thus: Intraocular pressure reducing action (Test Example 4). The assay is classed as in vivo, Japanese white rabbit. The settings on record: 50 μl of aqueous solution dropped to the left eye. On the procedure:
A Japanese white rabbit having a body weight of about 2 kg was placed in a positioner and naturalized for one week before the experiment. An ophthalmologic local anesthesant (Benoxil) was administered to the left eye, and then intraocular pressure was measured by using a tonometer (Classic 30, Solan). The initial value of the intraocular pressure was measured, then 50 μl of an aqueous solution of a test compound was dropped to the left eye at various concentrations, and the intraocular pressure was measured with passage of time.

Assay [3] concerns cerebral hippocampal neurons. The assay can be described thus: Neurite outgrowth action (Test Example 5). The assay is classed as cell-based, Sprague-Dawley rats. To be noted: neurite length 24 hours after addition. On the procedure: From 18 day-old Sprague-Dawley rats, cerebral hippocampal neurons were prepared according to the method of Neuman et al. (Neuman, H. R. et al., J. Neurosci., 22, pp. 854-862, 2002). The prepared neurons were cultured for 24 hours according to the method of Tanaka et al. (Tanaka, H. et al., J. Cell Biol., 158 (2), pp. 321-329, 2002), then the medium was exchanged with fresh medium, and test medicaments of various concentrations or equivalent amounts of vehicle were added. Twenty-four hours after the addition of the medicaments, neurite length of each neuron was measured for the medicament-added group and the no-addition group, and compared. The neurite length was evaluated according to the method of Neuman et al. (Neuman, H. R. et al., J. Neurosci., 22, pp. 854-862, 2002).

Assay [4] deals with OVA-induced respiratory tract inflammation. The assay can be described thus: Chronic respiratory tract inflammation suppressing action (Test Example 7). The assay is classed as in vivo, BALB/c female mice. The settings on record: administration by infusion pump once a day for 5 days. On the procedure: According to Henderson, W. R., et al., Am. J. Respir. Cric. Care Med., 165(1), 108-116 (2002), suppressing action on bronchial inflammation was confirmed. BALB/c female mice (7-week old) were used for the test, which were grouped into a negative control group, a positive control group, and a drug administration group. The mice of each group were intraperitoneally administered with ovalbumin (OVA, 100 ng, Sigma) and 1 mg of aluminum hydroxide for initial immunization, and after 2 weeks, they are subcutaneously administered with 10 μg of OVA as additional immunization. In the following experiments, test compounds are used as a solution obtained by dissolving each compound in water containing 0.5% carboxymethylcellulose. […]
Twenty four hours after the final OVA inhalation or inhalation of physiological saline, pulmonary cavities of the test animals were washed with physiological saline containing 1% BSA, and the total infiltrated white blood cells (WBC) were counted. […]
Twenty four hours after the final drug administration, pulmonary cavities of the test animals were washed with physiological saline, and the total infiltrated white blood cells (WBC) were counted.

Assay [5] deals with lipopolysaccharide-induced inflammation. Description: Acute respiratory tract inflammation suppressing action (Test Example 8). The class given is in vivo, BALB/c female mice. To be noted: LPS inhalation; for acute respiratory tract inflammation, total infiltrated leucocyte number (WBC): test compound by infusion pump; for acute respiratory tract inflammation, total infiltrated leucocyte (WBC) number: test compound by nebulizer inhalation over 10 minutes. From the text:
According to Gonzales de Moraes, V L., et al., Br. J. Pharmacol., 123, pp. 631-6, 1998, suppressing action on pulmonary inflammation was studied. BALB/c female mice (7-week old) were used for the test, as the compound administration group and positive control group, each consisting of 7 mice, as well as the negative control group consisting of 5 mice. For induction of inflammation, a 0.03% physiological saline solution of a lipopolysaccharide (LPS, a mixture derived from Escherichia coli O55 and B5 strains, Sigma) was used. A test compound was dissolved in physiological saline to prepare solutions of various concentrations. […] Then, 1 minute after the completion of the inhalation of the lipopolysaccharide solution, the animals were administered with a solution of test compound at various concentrations over 10 minutes by inhalation using the aforementioned nebulizer. The mice of the positive control group were administered with the same volume of physiological saline instead of the test compound solution over 10 minutes by inhalation. The mice of the negative control group were inhaled with physiological saline instead of the lipopolysaccharide solution by inhalation, and then administered with the same volume of physiological saline instead of the test compound solution by inhalation. Three hours after the administration of the test compound, pulmonary cavities of the test animals were washed with physiological saline, and the total infiltrated leucocyte (WBC) number was counted.
Further, after starting the administration of the test compound solution by using an infusion pump, the mice of the drug administration group was inhaled with the lipopolysaccharide solution over 10 minutes by the aforementioned method to induce inflammation. At the same time, the mice of the positive control group were administered with the same volume of physiological saline instead of the test compound, and inflammation was induced by the aforementioned method. For the mice of the negative control group, the same procedure was performed by using physiological saline instead of the test compound, and physiological saline instead of the lipopolysaccharide solution. Three hours after the induction of respiratory tract inflammation, pulmonary cavities of the test animals were washed with physiological saline, and the total infiltrated leucocyte number (WBC) was counted.

A further assay relates to trachea. Description: Tracheal relaxation action (Test Example 11). More on the design: species or system Hartley guinea pigs. To be noted: constricted with 10 μM histamine. On the procedure:
Hartley guinea pigs (male, 300 to 600 g) were bled to death, and each trachea was extracted. The trachea was first cut on the pair of smooth muscles side along the direction parallel to the smooth muscles, then cut along the cartilage to prepare a sample in the form of a strip having a width of about 2 to 3 mm. After removing […], the sample was suspended with a static load of […] in a Magnus bath containing Krebs-Henseleit solution of 37° C. bubbled with a mixed gas of 95% O2 and 5% CO2. Generated tension was recorded on a recorder via an isometric transducer (FD Pickup TB-612T, Nihon Kohden).
After suspending the sample, and waiting for 1 hour or more until a stable ground line was obtainable, a constriction substance was administered, and then the experiment was started after reproducible constriction was obtainable. During this procedure, the solution in the Magnus bath was changed every about 30 minutes. The sample was constricted with 10 μM histamine, and after the time point that the generated tension was stabilized, a test drug was cumulatively administered at various concentrations to examine change in tension of the sample.

Assay [6] deals with histamine-induced constriction of respiratory tract. The assay can be described thus: Action of suppressing respiratory tract constriction induced by constriction elicitor (Test Example 12). The assay is classed as in vivo, Hartley guinea pigs. The settings on record: 100 μl test compound solution sprayed onto the respiratory tract.
In assay [7] the test system is intraocular pressure. The assay can be described thus: Intraocular pressure reduction enhancing action, combination with jointly-used drug (Test Example 13, rabbits). To be noted: jointly-used drug isopropylunoprostone, dorzolamide hydrochloride, bunazosin hydrochloride or timolol maleate. The class given is in vivo. An excerpt: For evaluation of intraocular pressure reduction enhancing action of a combination of the compound of the present invention and a jointly-used drug other than latanoprost, rabbits were used as experimental animals, and for evaluation of intraocular pressure reduction enhancing action of a combination of the compound of the present invention and latanoprost, monkeys were used. Naturalization of the rabbits, method for measuring intraocular pressure, and preparation of liquid for eye drop were according to those of Test Example 4. The rabbits were divided into a control group, instillation group for test compound solution alone (single active ingredient preparation group 1), instillation group for jointly-used drug alone (single active ingredient preparation group 2), and instillation group for jointly-used drug and test compound solution (combination use group). After initial values of intraocular pressure of the rabbits in each group were measured, 50 μL of a test compound solution in physiological saline at various concentrations was dropped to the eyes of the rabbits of the single active ingredient preparation group 1 and the combination use group, and physiological saline of the same volume was dropped to the eyes of the rabbits of the control group and the single active ingredient preparation group 2. […] Then, the intraocular pressure was measured in time course for each group. […]

As to `FC1CNCCC1N1CCc2cncc3cccc1c23` (stereo not shown), the vasoconstriction inhibitory action result in the assay on thoracic aorta was “had vasoconstriction inhibitory action”. Also, in assay [1], the “respiratory tract constriction suppression action by inhalation” value is “significantly improved the constriction of respiratory tract” and the “respiratory tract constriction suppressing action” value is listed as “significant respiratory tract constriction suppressing action”. Further, the “intraocular pressure reducing action” value in the assay on intraocular pressure [2] is given as “significant intraocular pressure reducing action”. Further, in assay [3], the neurite outgrowth entry is given as “induced significant neurite outgrowth”. In addition, the “chronic respiratory tract inflammation, total infiltrated white blood cells (WBC)” value in assay [4] is reported as “significantly improved the pathological conditions”. Also, in assay [5], the “acute respiratory tract inflammation, total infiltrated leucocyte number (WBC)” value is given as “significantly improved the pathological conditions” and the “acute respiratory tract inflammation, total infiltrated leucocyte (WBC) number” value is “significantly improved the pathological conditions”. Besides, the “suppression of constriction of the trachea sample” value with trachea is given as “significantly suppressed constriction of the trachea sample”. The “suppression of constriction of respiratory tract induced by histamine” value in assay [6] is recorded as “significantly suppressed the constriction of respiratory tract”. Also, the “intraocular pressure reducing action, combination use group versus single active ingredient preparation groups 1 and 2” value in the assay on intraocular pressure [7] is reported as “Enhancement of the intraocular pressure reducing action was also confirmed”.

As to `CN(CCO)C1CCC(N2CCc3cncc4cccc2c34)CC1` (stereo not shown), the vasoconstriction inhibitory action entry with thoracic aorta is on record as “had vasoconstriction inhibitory action”. In assay [1], the “respiratory tract constriction suppression action by inhalation” value is “significantly improved the constriction of respiratory tract” and the “respiratory tract constriction suppressing action” value is reported as “significant respiratory tract constriction suppressing action”. In addition, in the assay on intraocular pressure [2], the “intraocular pressure reducing action” value is listed as “significant intraocular pressure reducing action”. Further, in assay [3], the neurite outgrowth entry is given as “induced significant neurite outgrowth”. Also, in assay [4], the “chronic respiratory tract inflammation, total infiltrated white blood cells (WBC)” value is recorded as “significantly improved the pathological conditions”. Besides, in assay [5], the “acute respiratory tract inflammation, total infiltrated leucocyte number (WBC)” value is “significantly improved the pathological conditions” and the “acute respiratory tract inflammation, total infiltrated leucocyte (WBC) number” value was “significantly improved the pathological conditions”. Further, in the assay on trachea, the “suppression of constriction of the trachea sample” value is reported as “significantly suppressed constriction of the trachea sample”. Further, the “suppression of constriction of respiratory tract induced by histamine” value in assay [6] was “significantly suppressed the constriction of respiratory tract”. The “intraocular pressure reducing action, combination use group versus single active ingredient preparation groups 1 and 2” value in the assay on intraocular pressure [7] was “Enhancement of the intraocular pressure reducing action was also confirmed”.
